Patent US11203777B2, “Method of preparing sterilized compositions for stabilization of extracellular nucleic acids” (Qiagen GmbH, priority 2015, dated 2021)

Assays:
[1] = HPLC quantification of caspase inhibitor in stabilization reagent before and after gamma irradiation; assay type: physicochemical
Method: Caspase inhibitor (Q-VD-OPh) was dissolved and diluted in DMSO for generation of a standard curve. Concentrations of 7.5, 15, 30 and 60 μg/ml were used to generate the standard curve.
Stabilization reagents containing a mixture of caspase inhibitor, EDTA, DMPA and PEG were tested before and after gamma irradiation. Unique peaks for caspase inhibitor were identified and compared to the standard curve for total quantification of caspase inhibitor. The concentration of caspase inhibitor was determined before and after irradiation, and these concentrations were compared for relative quantification.
For the production of PAXgene Blood ccfDNA Alpha blood collection tubes (Alpha BCT), BD standard tubes for 10 ml blood draw were filled with 1.3-1.7 ml ccfDNA stabilization reagent. The exemplary stabilization reagents tested comprised a mixture of caspase inhibitor (Q-VD-OPh), K2EDTA, DMPA, PEG300 and PEG10000, according to PCT/EP2015/055699. A vacuum was applied to the tubes to allow for a 10.25 ml blood draw. Tubes were sterilized by gamma irradiation using Cobalt-60 as energetic gamma ray source in a range of 5 to 35 kGy. […]
Stabilization reagents were produced with or without the addition of radical scavengers and sterilized in bulk by gamma irradiation. The caspase inhibitor concentration was measured by HPLC before and after irradiation to determine the effect of scavenger addition on caspase inhibitor degradation during sterilization by gamma irradiation.
Stabilization reagents according to PCT/EP2015/055699 were produced with or without the addition of radical scavengers in different concentrations and with different concentrations of caspase inhibitor. PAXgene Blood ccfDNA Alpha tubes were produced by filling 1.7 ml of the respective stabilization reagent into a standard Vacutainer. Tubes were sterilized by gamma irradiation with different energy levels. The caspase inhibitor concentration was measured by HPLC before and after irradiation (see Table 7 below).

[2] = system: ccfDNA level in whole blood (66 bp and 500 bp fragments of the 18S rDNA gene); test: ccfDNA stabilization in stored whole blood, real time PCR of 18S rDNA fragments in plasma
Method: Blood was drawn into Alpha BCT for stabilization of the ccfDNA level. 10 ml spray dried EDTA tubes (BD) with 1.8 mg K2EDTA per ml of whole blood served as non-stabilized negative control. Blood and reagents were mixed by inverting the tube ten times. Stabilized and non-stabilized blood samples were stored at room temperature standing in an upright position.
Whole blood samples were centrifuged at ambient temperature for 15 min at 1.900×g. The clear plasma fraction was transferred into a fresh centrifuge tube. In a second round, plasma samples were centrifuged for 10 min at 16.000×g in case of non-stabilized EDTA-blood or for 10 min at 1.900×g in case of stabilized Alpha BCT blood. The supernatant was transferred into a new tube and used either directly for the purification of ccfDNA or stored at −20° C. until use.
DNA from plasma was isolated with the QIAamp circulating nucleic acid kit (QIAGEN GmbH), using the protocol for purification of circulating nucleic acids from 1 ml, 2 ml, or 3 ml serum or plasma. If not stated otherwise, 2 ml of plasma was mixed with proteinase K and lysis buffer ACL, incubated for 30 min at 60° C., mixed with buffer ACB, bound on QIAamp Mini columns with the use of a QIAvac 24 Plus vacuum manifold, washed and eluted with 60 μl elution buffer AVE, according to the manufactures recommendations.
ccfDNA from 2 ml plasma was isolated with a preliminary version of the QIAsymphony Circulating DNA protocol and kit (QIAGEN). If not stated otherwise, the QIAsymphony robot mixed 2 ml of plasma with proteinase K, binding buffer and magnetic beads. Beads with bound DNA were washed three times and DNA was eluted using 60 μl elution buffer.
To measure the amount of ccfDNA, a real time PCR assay on Abi Prism HT7900 (Life Technologies) was performed with 3 μl of eluate. In a 20 μl assay volume using QuantiTect Multiplex PCR Kit reagents (QIAGEN GmbH), two fragments of the human 18S rDNA gene were amplified in a multiplex PCR. Total quantification was achieved by comparison with a standard curve generated with human genomic DNA diluted from 3000 to 0.3 genome equivalents (1 genome equivalent equates to around 6.6 μg of human genomic DNA).
Quantification of the 66 bp fragment was used to reflect the total amount of 18S rDNA copies in the plasma. Quantification of the 500 bp was used to determine the amount of 18S rDNA copies which derived from apoptotic or mechanically lysed leukocytes from whole blood. […] The increase of copy numbers from the 500 bp fragment between day 0 and 3 or 6 days storage, was used as a measurement of stability efficiency.
PAXgene Blood ccfDNA Alpha tubes were produced and sterilized by gamma irradiation with different energy levels. Samples of 10 ml whole blood from eight donors were collected in 10 ml spray dry K2EDTA tubes (non-stabilized controls) and in PAXgene Blood ccfDNA Alpha tubes. Plasma was generated from 5 ml of stabilized or non-stabilized blood samples directly after blood draw. Residual blood was stored for additional 6 days at room temperature before plasma generation. ccfDNA was purified manually from 2 ml plasma, copy numbers of 18S rDNA gene were determined in triplicates by real time PCR.
Samples of 10 ml whole blood from eight donors were collected in 10 ml spray dry K2EDTA tubes. Directly after blood draw, non-stabilized blood samples were stabilized by addition of 1.7 ml of a ccfDNA stabilization reagent according to PCT/EP2015/055699 with or without addition of the different compounds tested for their impact on extracellular nucleic acid stabilization.
Plasma was generated from 5 ml of stabilized blood samples directly after the blood draw (day 0).

[3] = scavenger 5-10 mg/ml, 0.5-1% (w/v)

SMILES: O=C1O[C@H]([C@@H](O)CO)C(O)=C1O [Ascorbic acid]
- HPLC Testing [C-Inh] ([1]; scavenger 1 mg/ml, casp-inh. 5 μM, 0 kGy): 18.2 µg/mL
- HPLC Testing [C-Inh] ([1]; scavenger 1 mg/ml, casp-inh. 5 μM, 20 kGy): 7.0 µg/mL
- HPLC Testing [C-Inh] ([1]; scavenger 1 mg/ml, casp-inh. 5 μM, 30 kGy): 5.0 µg/mL
- HPLC Testing [C-Inh] ([1]; scavenger 2 mg/ml, casp-inh. 5 μM, 10 kGy): 15.2 µg/mL
- HPLC Testing [C-Inh] ([1]; scavenger 2 mg/ml, casp-inh. 5 μM, 20 kGy): 10.7 µg/mL
- HPLC Testing [C-Inh] ([1]; scavenger 2 mg/ml, casp-inh. 5 μM, 30 kGy): 9.5 µg/mL
- [Casp] (Pre-Irr) ([1]; scavenger 5 mg/ml-27.5 mM, 50 ml bulk): 16.522 µg/mL
- [Casp] (Post-Irr) ([1]; scavenger 5 mg/ml-27.5 mM, 50 ml bulk, 25 kGy): 12.5986 µg/mL
- HPLC Testing [C-Inh] ([1]; scavenger 5 mg/ml, casp-inh. 5 μM, 0 kGy): 19.2 µg/mL
- HPLC Testing [C-Inh] ([1]; scavenger 5 mg/ml, casp-inh. 5 μM, 10 kGy): 16.0 µg/mL
- HPLC Testing [C-Inh] ([1]; scavenger 5 mg/ml, casp-inh. 5 μM, 20 kGy): 12.8 µg/mL
- HPLC Testing [C-Inh] ([1]; scavenger 5 mg/ml, casp-inh. 5 μM, 30 kGy): 12.1 µg/mL
- HPLC Testing [C-Inh] ([1]; scavenger 5 mg/ml, casp-inh. 10 μM, 0 kGy): 37.7 µg/mL
- HPLC Testing [C-Inh] ([1]; scavenger 5 mg/ml, casp-inh. 10 μM, 10 kGy): 31.2 µg/mL
- HPLC Testing [C-Inh] ([1]; scavenger 5 mg/ml, casp-inh. 10 μM, 20 kGy): 26.8 µg/mL
- HPLC Testing [C-Inh] ([1]; scavenger 5 mg/ml, casp-inh. 10 μM, 30 kGy): 23.7 µg/mL
- HPLC Testing [C-Inh] ([1]; scavenger 5 mg/ml, casp-inh. 15 μM, 0 kGy): 55.5 µg/mL
- HPLC Testing [C-Inh] ([1]; scavenger 5 mg/ml, casp-inh. 15 μM, 10 kGy): 46.4 µg/mL
- HPLC Testing [C-Inh] ([1]; scavenger 5 mg/ml, casp-inh. 15 μM, 20 kGy): 40.6 µg/mL
- HPLC Testing [C-Inh] ([1]; scavenger 5 mg/ml, casp-inh. 15 μM, 30 kGy): 35.5 µg/mL
- HPLC Testing [C-Inh] ([1]; scavenger 10 mg/ml, casp-inh. 5 μM, 0 kGy): 18.4 µg/mL
- HPLC Testing [C-Inh] ([1]; scavenger 10 mg/ml, casp-inh. 5 μM, 10 kGy): 16.0 µg/mL
- HPLC Testing [C-Inh] ([1]; scavenger 10 mg/ml, casp-inh. 5 μM, 20 kGy): 13.5 µg/mL
- Protection against gamma irradiation [1, 3]: high
- average total copy numbers of the 500 bp fragment of the 18S rDNA gene ([2]; scavenger 20 mg/ml, directly after blood collection, FIG. 5): reduced ccfDNA absolute copy numbers
- Effect on ccfDNA stability [2, 3]: neutral
